According to ChEMBL document CHEMBL5465560, “Selectivity Literature for EUbOPEN Chemogenomic Library” (2024):

Tests used:
[1] = target: T1, Myosin light chain kinase family member 4 (Homo sapiens) (UniProt Q86YV6); conditions: at 10 µM
T1 sequence (whole entry): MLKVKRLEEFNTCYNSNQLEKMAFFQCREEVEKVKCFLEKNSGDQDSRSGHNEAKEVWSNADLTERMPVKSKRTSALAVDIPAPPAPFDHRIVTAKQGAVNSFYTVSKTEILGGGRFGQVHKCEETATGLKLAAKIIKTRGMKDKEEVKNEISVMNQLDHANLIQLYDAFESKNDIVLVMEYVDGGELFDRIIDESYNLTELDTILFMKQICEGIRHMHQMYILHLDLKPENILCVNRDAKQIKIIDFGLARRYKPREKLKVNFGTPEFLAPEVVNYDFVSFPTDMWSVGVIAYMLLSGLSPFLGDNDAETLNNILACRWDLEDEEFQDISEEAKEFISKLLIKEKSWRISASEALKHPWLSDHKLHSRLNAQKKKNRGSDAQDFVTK

[2] = target: Casein kinase II subunit alpha' (Homo sapiens) (UniProt P19784); assay: Selectivity interaction (Kinase panel (DSF assay)) EUB0001558a CSNK2A2
[3] = Selectivity interaction (KinomeScan (DiscoverX)) EUB0000229b CDPK1; conditions: at 1 µM
[4] = target: T2, Tyrosine-protein kinase receptor TYRO3 (Homo sapiens) (UniProt Q06418); conditions: at 10 µM
T2 sequence (whole entry): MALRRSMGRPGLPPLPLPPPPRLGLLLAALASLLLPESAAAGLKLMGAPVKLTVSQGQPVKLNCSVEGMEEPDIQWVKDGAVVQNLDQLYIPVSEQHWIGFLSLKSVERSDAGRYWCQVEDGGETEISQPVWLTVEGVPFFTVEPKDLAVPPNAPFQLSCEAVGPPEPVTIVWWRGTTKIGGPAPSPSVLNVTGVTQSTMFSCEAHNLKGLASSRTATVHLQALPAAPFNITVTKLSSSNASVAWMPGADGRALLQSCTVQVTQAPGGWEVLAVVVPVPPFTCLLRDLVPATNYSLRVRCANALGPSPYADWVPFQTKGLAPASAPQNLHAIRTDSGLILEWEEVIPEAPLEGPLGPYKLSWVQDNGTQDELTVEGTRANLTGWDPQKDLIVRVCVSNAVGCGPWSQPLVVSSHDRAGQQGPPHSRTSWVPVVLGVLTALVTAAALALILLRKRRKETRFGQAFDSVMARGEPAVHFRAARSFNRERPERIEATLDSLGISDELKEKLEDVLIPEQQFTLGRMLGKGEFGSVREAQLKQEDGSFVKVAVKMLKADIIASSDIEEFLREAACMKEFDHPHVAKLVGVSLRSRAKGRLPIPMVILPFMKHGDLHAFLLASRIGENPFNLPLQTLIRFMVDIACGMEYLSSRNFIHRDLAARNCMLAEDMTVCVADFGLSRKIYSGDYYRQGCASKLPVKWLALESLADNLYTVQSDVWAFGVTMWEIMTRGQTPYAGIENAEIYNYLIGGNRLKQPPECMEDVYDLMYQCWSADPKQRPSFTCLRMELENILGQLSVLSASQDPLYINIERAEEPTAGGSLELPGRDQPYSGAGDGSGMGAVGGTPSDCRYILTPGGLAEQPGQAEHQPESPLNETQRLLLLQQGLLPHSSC

[5] = target: MAP/microtubule affinity-regulating kinase 3 (Homo sapiens) (UniProt P27448); assay: Selectivity interaction (ActivX KiNativ screen (kinase selectivity in THP-1 cell lysates)) EUB0000639a MARK3; assay type: subcellular; conditions: lysate, at 0.01 µM
[6] = target: Tyrosine-protein kinase JAK1 (Homo sapiens, UniProt P23458); assay: Selectivity interaction (Kinase panel (Invitrogen)) EUB0000639a JAK1; conditions: at 200 nM
[7] = target: T3, Serine/threonine-protein kinase MAK (Homo sapiens) (UniProt P20794); assay: Selectivity interaction (KinomeScan (DiscoverX)) EUB0000607a MAK; conditions: at 10 µM
T3 sequence (whole entry): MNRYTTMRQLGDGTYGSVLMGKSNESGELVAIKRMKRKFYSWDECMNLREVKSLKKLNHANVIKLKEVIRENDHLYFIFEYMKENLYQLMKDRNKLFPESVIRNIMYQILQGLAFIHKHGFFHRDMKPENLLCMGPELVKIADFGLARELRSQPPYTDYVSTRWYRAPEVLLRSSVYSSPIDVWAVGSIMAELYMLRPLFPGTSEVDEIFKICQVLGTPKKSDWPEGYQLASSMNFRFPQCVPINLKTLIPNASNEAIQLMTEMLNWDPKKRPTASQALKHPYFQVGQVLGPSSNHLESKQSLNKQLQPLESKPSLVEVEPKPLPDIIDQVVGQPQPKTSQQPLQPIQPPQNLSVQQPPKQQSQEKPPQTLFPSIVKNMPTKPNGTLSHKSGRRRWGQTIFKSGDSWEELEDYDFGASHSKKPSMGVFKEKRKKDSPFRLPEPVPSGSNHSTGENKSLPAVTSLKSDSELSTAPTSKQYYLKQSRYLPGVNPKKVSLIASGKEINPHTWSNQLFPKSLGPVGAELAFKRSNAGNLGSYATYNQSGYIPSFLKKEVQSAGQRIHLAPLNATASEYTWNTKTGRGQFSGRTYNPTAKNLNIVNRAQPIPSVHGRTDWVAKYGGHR

[8] = target: T4, Ankyrin repeat and protein kinase domain-containing protein 1 (Homo sapiens) (UniProt Q8NFD2); assay: Selectivity interaction (KinomeScan (DiscoverX)) EUB0001619a ANKK1; conditions: at 1 µM
T4 sequence (whole entry): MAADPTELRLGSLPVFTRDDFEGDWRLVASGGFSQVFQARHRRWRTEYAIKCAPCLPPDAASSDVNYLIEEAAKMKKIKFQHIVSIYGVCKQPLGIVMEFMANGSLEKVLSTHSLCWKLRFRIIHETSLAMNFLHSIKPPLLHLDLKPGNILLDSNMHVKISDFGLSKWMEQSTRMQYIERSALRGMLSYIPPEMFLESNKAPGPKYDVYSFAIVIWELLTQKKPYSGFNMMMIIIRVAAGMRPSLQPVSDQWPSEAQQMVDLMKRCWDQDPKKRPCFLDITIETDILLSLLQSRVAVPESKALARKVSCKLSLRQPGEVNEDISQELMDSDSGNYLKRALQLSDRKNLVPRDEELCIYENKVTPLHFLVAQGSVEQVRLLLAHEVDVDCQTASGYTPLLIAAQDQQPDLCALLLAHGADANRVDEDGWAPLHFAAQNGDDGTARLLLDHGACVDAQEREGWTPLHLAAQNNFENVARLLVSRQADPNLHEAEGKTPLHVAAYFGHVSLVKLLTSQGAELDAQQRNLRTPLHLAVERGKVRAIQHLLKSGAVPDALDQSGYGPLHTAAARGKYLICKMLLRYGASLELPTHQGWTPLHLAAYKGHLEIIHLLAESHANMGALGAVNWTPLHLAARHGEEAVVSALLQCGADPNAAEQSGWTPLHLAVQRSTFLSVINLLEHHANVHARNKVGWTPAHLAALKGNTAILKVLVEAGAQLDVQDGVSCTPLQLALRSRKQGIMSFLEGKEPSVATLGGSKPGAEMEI

Sequence of MAP/microtubule affinity-regulating kinase 3 (Homo sapiens) (P27448 whole entry, looked up): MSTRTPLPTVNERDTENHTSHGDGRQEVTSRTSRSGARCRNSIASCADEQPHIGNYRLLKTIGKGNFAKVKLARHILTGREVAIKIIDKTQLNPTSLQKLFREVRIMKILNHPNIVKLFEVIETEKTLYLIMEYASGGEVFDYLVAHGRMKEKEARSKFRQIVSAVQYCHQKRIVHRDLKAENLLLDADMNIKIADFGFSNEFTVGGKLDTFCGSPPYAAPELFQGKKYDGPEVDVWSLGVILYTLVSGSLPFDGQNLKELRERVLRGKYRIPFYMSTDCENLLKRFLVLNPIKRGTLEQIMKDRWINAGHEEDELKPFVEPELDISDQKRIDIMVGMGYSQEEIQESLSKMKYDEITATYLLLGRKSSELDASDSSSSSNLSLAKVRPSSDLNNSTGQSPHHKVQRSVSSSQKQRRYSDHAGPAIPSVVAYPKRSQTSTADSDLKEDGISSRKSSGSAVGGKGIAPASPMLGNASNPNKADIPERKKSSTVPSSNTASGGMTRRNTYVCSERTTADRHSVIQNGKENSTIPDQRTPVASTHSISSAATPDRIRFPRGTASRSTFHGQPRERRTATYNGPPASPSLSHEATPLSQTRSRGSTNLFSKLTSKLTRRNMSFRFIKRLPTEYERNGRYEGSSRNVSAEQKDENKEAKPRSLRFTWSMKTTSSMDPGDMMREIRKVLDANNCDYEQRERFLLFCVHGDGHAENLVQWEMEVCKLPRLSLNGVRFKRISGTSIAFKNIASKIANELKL
Sequence of Tyrosine-protein kinase JAK1 (P23458 whole entry): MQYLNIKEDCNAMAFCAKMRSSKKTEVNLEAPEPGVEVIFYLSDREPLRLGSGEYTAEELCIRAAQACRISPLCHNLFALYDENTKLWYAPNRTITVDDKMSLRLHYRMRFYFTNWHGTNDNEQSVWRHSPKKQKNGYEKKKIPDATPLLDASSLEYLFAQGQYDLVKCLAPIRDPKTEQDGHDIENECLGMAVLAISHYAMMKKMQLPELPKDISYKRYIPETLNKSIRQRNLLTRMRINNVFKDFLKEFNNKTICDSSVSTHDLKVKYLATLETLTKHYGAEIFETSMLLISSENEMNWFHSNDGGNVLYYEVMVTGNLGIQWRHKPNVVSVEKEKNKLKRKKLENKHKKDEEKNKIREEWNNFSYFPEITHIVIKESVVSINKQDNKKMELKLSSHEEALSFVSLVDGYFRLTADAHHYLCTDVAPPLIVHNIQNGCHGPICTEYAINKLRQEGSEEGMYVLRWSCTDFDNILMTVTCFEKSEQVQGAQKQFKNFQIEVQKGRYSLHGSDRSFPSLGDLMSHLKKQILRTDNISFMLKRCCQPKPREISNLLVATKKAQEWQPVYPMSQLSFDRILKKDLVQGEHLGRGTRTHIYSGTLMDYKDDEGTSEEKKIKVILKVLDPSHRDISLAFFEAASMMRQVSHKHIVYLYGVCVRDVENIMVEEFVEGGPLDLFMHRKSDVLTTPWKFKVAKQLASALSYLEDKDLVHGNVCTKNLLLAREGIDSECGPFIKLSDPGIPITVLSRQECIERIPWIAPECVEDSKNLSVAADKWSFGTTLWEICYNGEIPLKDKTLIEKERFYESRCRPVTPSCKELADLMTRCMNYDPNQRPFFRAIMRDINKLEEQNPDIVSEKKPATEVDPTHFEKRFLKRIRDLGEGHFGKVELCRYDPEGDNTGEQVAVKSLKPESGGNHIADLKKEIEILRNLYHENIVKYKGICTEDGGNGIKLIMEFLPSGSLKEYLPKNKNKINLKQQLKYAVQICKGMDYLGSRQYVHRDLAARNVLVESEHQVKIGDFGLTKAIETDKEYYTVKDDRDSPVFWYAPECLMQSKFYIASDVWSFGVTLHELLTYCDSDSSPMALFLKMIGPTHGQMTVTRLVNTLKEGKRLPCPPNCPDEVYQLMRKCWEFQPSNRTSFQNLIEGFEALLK
Sequence of Casein kinase II subunit alpha' (Homo sapiens) (P19784 whole entry, looked up): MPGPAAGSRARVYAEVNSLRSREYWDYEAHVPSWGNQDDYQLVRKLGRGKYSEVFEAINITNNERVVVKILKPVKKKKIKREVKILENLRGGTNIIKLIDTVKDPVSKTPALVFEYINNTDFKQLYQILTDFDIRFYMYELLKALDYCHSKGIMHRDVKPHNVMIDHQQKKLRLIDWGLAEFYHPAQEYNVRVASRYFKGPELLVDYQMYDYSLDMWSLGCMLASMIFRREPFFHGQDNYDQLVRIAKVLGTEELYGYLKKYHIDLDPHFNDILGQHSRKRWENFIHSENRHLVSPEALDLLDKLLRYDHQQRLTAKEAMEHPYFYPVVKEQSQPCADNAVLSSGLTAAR

CCN(CC)CCCCNc1ncc2cc(-c3cc(OC)cc(OC)c3)c(NC(=O)NC(C)(C)C)nc2n1
% of control [1]: 100%

CC(C)(O)[C@H](F)CN1Cc2cc(NC(=O)c3cnn4cccnc34)c(N3CCOCC3)cc2C1=O
dTM [2]: 0.1 K

COc1cc(N(C)c2ccnc3ccc(C(F)(F)F)cc23)cc(OC)c1OC
% binding [3]: 74%

Cc1cc([C@@H](C)Nc2ccccc2C(=O)O)c2nc(N3CCOCC3)cc(=O)n2c1 [AZD-6482]
% of control [4]: 100%

CC[C@@H]1[C@H](F)C(=O)N[C@@H]1COc1nccc2cc(C(N)=O)c(OC)cc12 [ZIMLOVISERTIB]
% of inhibition [5]: 10.4% | % of inhibition [6]: -0.407%

CNC(=O)Nc1ccc(-c2nc(N3CC4CCC(C3)O4)c3cnn(C4CCC5(CC4)OCCO5)c3n2)cc1
% of control [7]: 100%

N#Cc1cccc(-c2c[nH]c3ncnc(N4CCOCC4)c23)c1
% of control [8]: 98%
